The test system of the data set is immortalised tenocytes, known as TENO (Teno Cell Line). As to the kind of experiment: type II MIFALC (Microtitration Fluorimetric Assay on Living Cells) test, H2DCF-DA fluorescence, tendon toxicity of fluoroquinolones/statins. To be noted: pretreatment with anethole-dithiolethione 20 μM, 72 hours before contact with the xenobiotics; free radicals by H2DCF-DA fluorescence read after 40 minutes. In kind it is cell-based. The procedure:
The test carried out is a type II MIFALC (Microtitration Fluorimetric Assay on Living Cells) test, that is to say that all of the steps, including detection/disclosure, are carried out on living cells, the test using fluorimetric detection under cold light, in order to achieve the maximum level of detection sensitivity and specificity necessary for the intracellular studies. The tests are carried out on a line of immortalised tenocytes, known as TENO (Teno Cell Line).
The cultures are produced in […] flasks for cell multiplication and in plates having 96 shallow wells for culture.
The tenocytes are placed in suspension with a small amount of trypsin. When the cells are released, the action of the trypsin is blocked by the addition of culture medium containing fetal calf serum. After centrifuging, the residue is taken up by complete medium HAM F-12, then the cells are counted using a Malassez or Thoma hemocytometer. Next, a solution of 27,500 cells/ml is prepared in the complete culture medium and 200 μl are placed in each of the central 60 wells of the microplates having 96 wells. Therefore, there are 5,500 cells per well. The plates are placed in incubation at 37° C. in a humid atmosphere of air/CO2 (95%/5%). The test is carried out after 48 hours when the cells adhere to the support. […]
The fluorescence units are read after 40 minutes.

Consider `COc1ccc(-c2cc(=S)ss2)cc1` [anethole-dithiolethione], for which the “protection against tendon toxicity (cytotoxic effect) of fluoroquinolones in cellular tenocyte model” value is “protects against this tendon toxicity”.

The values are drawn from US20030187067A1, “Use of anethole-dithiolethione for preventing and treating drug-induced tendon toxicity” (priority 2000, published 2003).
